The values below are quoted from earlier work in US20250032463A1, “RAPAMYCIN-CONTAINING PHARMACEUTICAL COMPOSITION” (NOBELPHARMA CO., LTD., priority 2023, published 2025).

As for `CO[C@H]1C[C@@H]2CC[C@@H](C)[C@@](O)(O2)C(=O)C(=O)N2CCCC[C@H]2C(=O)O[C@H]([C@H](C)C[C@@H]2CC[C@@H](O)[C@H](OC)C2)CC(=O)[C@H](C)/C=C(\C)[C@@H](O)[C@@H](OC)C(=O)[C@H](C)C[C@H](C)/C=C/C=C/C=C/1C` [rapamycin, Rapamycin], the “stability in aqueous solvents” value is recorded as “unstable”.
